Test results from publication PMC10257182, “Discovery of senolytics using machine learning” (Nature Communications, 2023).
Several values for one entry are separate records, joined by “and”; a condition that tells them apart may be missing. Equal entries are not always repeated. Where two headings read alike, the source gives them in different places.

Tests used:
Type in all cases: cell-based, human
[1] = tested on: senescent IMR90 ER:RAS cells (4-OHT-induced); assay: Nuclei count (Hoechst, high content imaging) senolytic assay, oncogene-induced senescence (OIS) model, senescent cells
In short: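 Readout is automated image-based counting of Hoechst-stained nuclei per well, with loss of cells relative to untreated wells taken as cell death. Senescent (4-OHT, 100 nM) and control IMR90 ER:RAS cells were exposed to compounds for 72 h at 10 nM to 10 μM final.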

[2] = tested on: senescent A549 cells (etoposide-induced); assay: Nuclei count senolytic assay, therapy-induced senescence (TIS) model, senescent cells; conditions: for % Cell Survival: senescence cells, single replicate
In short: (§1)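 Read-out is the imaged count of Hoechst 33342-stained nuclei (2 μg/ml final) in fixed, permeabilised A549 cells. Senescent cells had received etoposide at 100 μM for 48 h plus three days recovery in normal media. Compound exposure lasted 72 h across a 10-point […] range, 10 μM to 10 nM.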

[3] = tested on: non-senescent control A549 cells; assay: Nuclei count senolytic assay, TIS model, non-senescent control cells; conditions: for % Cell Survival: control cells, single replicate
In short: as §1

Compound COc1cc(O)c2c(=O)cc(-c3ccc(OC)c(-c4c(O)cc(O)c5c(=O)cc(-c6ccc(O)cc6)oc45)c3)oc2c1 [Ginkgetin, ginkgetin] has a viability at 10 µM ([1]; Homo sapiens, IMR-90, 72 h, Senescent, log (dose) [M] -5, 72 h, mean n=3 (Fig 3C), read-out: Mean % Cell Survival) of 5.11%, a viability at 4.677 µM ([1]; Homo sapiens, IMR-90, 72 h, Senescent, log (dose) [M] -5.33, 72 h, mean n=3 (Fig 3C), read-out: Mean % Cell Survival) of 9.69% and a viability at 2.188 µM ([1]; Homo sapiens, IMR-90, 72 h, Senescent, log (dose) [M] -5.66, 72 h, mean n=3 (Fig 3C), read-out: Mean % Cell Survival) of 80%. The viability at 1 µM ([1]; Homo sapiens, IMR-90, 72 h, Senescent, log (dose) [M] -6, 72 h, mean n=3 (Fig 3C), read-out: Mean % Cell Survival) was 93.5%, the viability at 0.4677 µM ([1]; Homo sapiens, IMR-90, 72 h, Senescent, log (dose) [M] -6.33, 72 h, mean n=3 (Fig 3C), read-out: Mean % Cell Survival) was 108% and the viability at 0.2188 µM ([1]; Homo sapiens, IMR-90, 72 h, Senescent, log (dose) [M] -6.66, 72 h, mean n=3 (Fig 3C), read-out: Mean % Cell Survival) was 95.6%. It also gave a viability at 0.1 µM ([1]; Homo sapiens, IMR-90, 72 h, Senescent, log (dose) [M] -7, 72 h, mean n=3 (Fig 3C), read-out: Mean % Cell Survival) of 105%, a viability at 0.04677 µM ([1]; Homo sapiens, IMR-90, 72 h, Senescent, log (dose) [M] -7.33, 72 h, mean n=3 (Fig 3C), read-out: Mean % Cell Survival) of 113% and a viability at 0.02188 µM ([1]; Homo sapiens, IMR-90, 72 h, Senescent, log (dose) [M] -7.66, 72 h, mean n=3 (Fig 3C), read-out: Mean % Cell Survival) of 105%. It also gave a viability at 0.01 µM ([1]; Homo sapiens, IMR-90, 72 h, Senescent, log (dose) [M] -8, 72 h, mean n=3 (Fig 3C), read-out: Mean % Cell Survival) of 110%, a viability at 10 µM ([1]; Homo sapiens, IMR-90, senescence, log (dose) [M] -5, individual replicates (Fig 3D), read-out: % Cell Survival) of 4.7% and a viability at 2.188 µM ([1]; Homo sapiens, IMR-90, senescence, log (dose) [M] -5.66, individual replicates (Fig 3D), read-out: % Cell Survival) of 71.2%. For the same compound, the viability at 0.04677 µM ([1]; Homo sapiens, IMR-90, senescence, log (dose) [M] -7.33, individual replicates (Fig 3D), read-out: % Cell Survival) was 116%, the IC50 ([1]; Homo sapiens, IMR-90, OIS model, 4-OHT-induced IMR90 ER:RAS, nuclei count, 72 h) was 2.6 µM and the “dose showing the clearest senolytic effect” value ([1]; OIS IMR90 ER:RAS, Hoechst nuclei count, marginal effect on normal cells) was 4.6 µM. The “senolytic activity (in words)” value ([1]; experimental screen, OIS IMR90 ER:RAS) was “clear senolytic action”, the viability at 10 µM ([2]; Homo sapiens, A549, log (dose) [M] -5, Senescent cells, mean, read-out: Mean % Cell Survival) was 25.9% and the viability at 4.68 µM ([2]; Homo sapiens, A549, log (dose) [M] -5.33, Senescent cells, mean, read-out: Mean % Cell Survival) was 55.3%. The viability at 2.19 µM ([2]; Homo sapiens, A549, log (dose) [M] -5.66, Senescent cells, mean, read-out: Mean % Cell Survival) was 103%, the viability at 1 µM ([2]; Homo sapiens, A549, log (dose) [M] -6, Senescent cells, mean, read-out: Mean % Cell Survival) was 115% and the viability at 0.468 µM ([2]; Homo sapiens, A549, log (dose) [M] -6.33, Senescent cells, mean, read-out: Mean % Cell Survival) was 104%. The viability at 0.219 µM ([2]; Homo sapiens, A549, log (dose) [M] -6.66, Senescent cells, mean, read-out: Mean % Cell Survival) was 126%, the viability at 0.1 µM ([2]; Homo sapiens, A549, log (dose) [M] -7, Senescent cells, mean, read-out: Mean % Cell Survival) was 85.3% and the viability at 0.0468 µM ([2]; Homo sapiens, A549, log (dose) [M] -7.33, Senescent cells, mean, read-out: Mean % Cell Survival) was 89.9%. It also gave a viability at 0.0219 µM ([2]; Homo sapiens, A549, log (dose) [M] -7.66, Senescent cells, mean, read-out: Mean % Cell Survival) of 99.8%, a viability at 0.01 µM ([2]; Homo sapiens, A549, log (dose) [M] -8, Senescent cells, mean, read-out: Mean % Cell Survival) of 95.8% and an IC50 ([2]; Homo sapiens, TIS model, etoposide-induced senescent A549, nuclei count, 72 h) of 5.7 µM. The “concentration at which a senolytic effect was reached” value ([2]; TIS A549, Hoechst labelling, marginal or no effect on normal cells) was 4.64 µM, the “senolytic action (in words)” value ([2]; experimental screen, TIS senescent A549) was “strong senolytic action” and the “% Cell Survival” value ([2]; log (dose) [M] -5) was 26.9419% and 20.9924% and 29.7526%. The “% Cell Survival” value ([2]; log (dose) [M] -5.33) was 57.8726% and 51.7176% and 56.1849%, the “% Cell Survival” value ([2]; log (dose) [M] -5.66) was 111.826% and 87.7863% and 107.943% and the “% Cell Survival” value ([2]; log (dose) [M] -6) was 147.166% and 101.59% and 95.3776%. The “% Cell Survival” value ([2]; log (dose) [M] -6.33) was 97.7607% and 104.262% and 110.807%, the “% Cell Survival” value ([2]; log (dose) [M] -6.66) was 107.348% and 137.468% and 133.789% and the “% Cell Survival” value ([2]; log (dose) [M] -7) was 106.298% and 85.6234% and 63.9323%. The “% Cell Survival” value ([2]; log (dose) [M] -7.33) was 97.7607% and 95.0382% and 76.8229%, the “% Cell Survival” value ([2]; log (dose) [M] -7.66) was 110.287% and 102.735% and 86.4583% and the “% Cell Survival” value ([2]; log (dose) [M] -8) was 107.348% and 95.9288% and 84.0495%. The viability at 10 µM ([3]; Homo sapiens, A549, log (dose) [M] -5, Control cells, mean, read-out: Mean % Cell Survival) was 56.2%, the viability at 4.68 µM ([3]; Homo sapiens, A549, log (dose) [M] -5.33, Control cells, mean, read-out: Mean % Cell Survival) was 65.7% and the viability at 2.19 µM ([3]; Homo sapiens, A549, log (dose) [M] -5.66, Control cells, mean, read-out: Mean % Cell Survival) was 98.7%. It also gave a viability at 1 µM ([3]; Homo sapiens, A549, log (dose) [M] -6, Control cells, mean, read-out: Mean % Cell Survival) of 85.7%, a viability at 0.468 µM ([3]; Homo sapiens, A549, log (dose) [M] -6.33, Control cells, mean, read-out: Mean % Cell Survival) of 31.8% and a viability at 0.219 µM ([3]; Homo sapiens, A549, log (dose) [M] -6.66, Control cells, mean, read-out: Mean % Cell Survival) of 96.2%. The viability at 0.1 µM ([3]; Homo sapiens, A549, log (dose) [M] -7, Control cells, mean, read-out: Mean % Cell Survival) was 94%, the viability at 0.0468 µM ([3]; Homo sapiens, A549, log (dose) [M] -7.33, Control cells, mean, read-out: Mean % Cell Survival) was 96.8% and the viability at 0.0219 µM ([3]; Homo sapiens, A549, log (dose) [M] -7.66, Control cells, mean, read-out: Mean % Cell Survival) was 95.6%. For the same compound, the viability at 0.01 µM ([3]; Homo sapiens, A549, log (dose) [M] -8, Control cells, mean, read-out: Mean % Cell Survival) was 68.4%, the IC50 ([3]; Homo sapiens, TIS model, non-senescent A549, nuclei count, 72 h) was 10.4 µM and the “% Cell Survival” value ([3]; log (dose) [M] -5) was 52.2043% and 59.0944% and 57.4435%. For the same compound, the “% Cell Survival” value ([3]; log (dose) [M] -5.33) was 97.7607% and 99.3093%, the “% Cell Survival” value ([3]; log (dose) [M] -5.66) was 91.6025% and 99.9233% and 104.599% and the “% Cell Survival” value ([3]; log (dose) [M] -6) was 75.5773% and 89.4858% and 92.1278%. The “% Cell Survival” value ([3]; log (dose) [M] -6.33) was 95.472%, the “% Cell Survival” value ([3]; log (dose) [M] -6.66) was 87.9636% and 100.998% and 99.7662% and the “% Cell Survival” value ([3]; log (dose) [M] -7) was 85.4444% and 99.693% and 96.7264%. For the same compound, the “% Cell Survival” value ([3]; log (dose) [M] -7.33) was 92.3723% and 99.3093% and 98.675%, the “% Cell Survival” value ([3]; log (dose) [M] -7.66) was 89.3632% and 102.916% and 94.4661% and the “% Cell Survival” value ([3]; log (dose) [M] -8) was 103.761% and 101.325%.
